PubChem BioAssay (NCI)
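Five concentrations, 48 hours, 96-well plates. GI50: concentration for 50% inhibition of growth. TGI: concentration producing complete growth inhibition.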

Assays:
Assay in all cases: NCI-60 cell line screen, 48 h
OVCAR-3 ovarian = tested on: OVCAR-3 ovarian
SK-MEL-28 melanoma = tested on: SK-MEL-28 melanoma
HCT-116 colon = tested on: HCT-116 colon
HCC-2998 colon = tested on: HCC-2998 colon
SN12C renal = tested on: SN12C renal
PC-3 prostate = tested on: PC-3 prostate
HCT-15 colon = tested on: HCT-15 colon
OVCAR-5 ovarian = tested on: OVCAR-5 ovarian
HT29 colon = tested on: HT29 colon
U251 CNS = tested on: U251 CNS
SW-620 colon = tested on: SW-620 colon
MCF7 breast = tested on: MCF7 breast
OVCAR-8 ovarian = tested on: OVCAR-8 ovarian
MOLT-4 leukemia = tested on: MOLT-4 leukemia
KM12 colon = tested on: KM12 colon
UACC-257 melanoma = tested on: UACC-257 melanoma
SK-MEL-5 melanoma = tested on: SK-MEL-5 melanoma
ACHN renal = tested on: ACHN renal
RPMI-8226 leukemia = tested on: RPMI-8226 leukemia
A498 renal = tested on: A498 renal
SF-539 CNS = tested on: SF-539 CNS
HS 578T breast = tested on: HS 578T breast
NCI-H522 lung = tested on: NCI-H522 lung
NCI-H460 lung = tested on: NCI-H460 lung
SK-MEL-2 melanoma = tested on: SK-MEL-2 melanoma
MALME-3M melanoma = tested on: MALME-3M melanoma
NCI-H23 lung = tested on: NCI-H23 lung
HL-60(TB) leukemia = tested on: HL-60(TB) leukemia
NCI-H226 lung = tested on: NCI-H226 lung
A549 NSCLC = tested on: A549 NSCLC
K-562 leukemia = tested on: K-562 leukemia
SR leukemia = tested on: SR leukemia
EKVX NSCLC = tested on: EKVX NSCLC
SNB-75 CNS = tested on: SNB-75 CNS
SF-295 CNS = tested on: SF-295 CNS
HOP-62 NSCLC = tested on: HOP-62 NSCLC
786-0 renal = tested on: 786-0 renal
CCRF-CEM leukemia = tested on: CCRF-CEM leukemia
SF-268 CNS = tested on: SF-268 CNS
SNB-19 CNS = tested on: SNB-19 CNS
LOX IMVI melanoma = tested on: LOX IMVI melanoma
SK-OV-3 ovarian = tested on: SK-OV-3 ovarian
M14 melanoma = tested on: M14 melanoma
CAKI-1 renal = tested on: CAKI-1 renal
RXF 393 renal = tested on: RXF 393 renal
DU-145 prostate = tested on: DU-145 prostate
MDA-MB-231 breast = tested on: MDA-MB-231 breast
UACC-62 melanoma = tested on: UACC-62 melanoma
MDA-MB-435 = tested on: MDA-MB-435
T-47D breast = tested on: T-47D breast
OVCAR-4 ovarian = tested on: OVCAR-4 ovarian
NCI/ADR-RES ovarian = tested on: NCI/ADR-RES ovarian
HOP-92 NSCLC = tested on: HOP-92 NSCLC
COLO 205 colon = tested on: COLO 205 colon

`Cc1ncc([N+](=O)[O-])n1CC(O)Cn1cnc([N+](=O)[O-])n1` (stereo unspecified) gave a TGI (OVCAR-3 ovarian) of over 100 µM, a TGI (SK-MEL-28 melanoma) of over 100 µM and a TGI (HCT-116 colon) of over 100 µM. The TGI (HCC-2998 colon) was over 100 µM, the TGI (SN12C renal) was over 100 µM and the TGI (PC-3 prostate) was over 100 µM. The TGI (HCT-15 colon) was over 100 µM, the TGI (OVCAR-5 ovarian) was over 100 µM and the TGI (HT29 colon) was over 100 µM. It also gave a TGI (U251 CNS) of over 100 µM, a TGI (SW-620 colon) of over 100 µM and a TGI (MCF7 breast) of over 100 µM. For the same compound, the TGI (OVCAR-8 ovarian) was over 100 µM, the TGI (MOLT-4 leukemia) was over 100 µM and the TGI (KM12 colon) was over 100 µM. For the same compound, the TGI (UACC-257 melanoma) was over 100 µM, the TGI (SK-MEL-5 melanoma) was over 100 µM and the TGI (ACHN renal) was over 100 µM. It also gave a TGI (RPMI-8226 leukemia) of over 100 µM, a TGI (A498 renal) of over 100 µM and a TGI (SF-539 CNS) of over 100 µM. The TGI (HS 578T breast) was over 100 µM, the TGI (NCI-H522 lung) was over 100 µM and the TGI (NCI-H460 lung) was over 100 µM. The TGI (SK-MEL-2 melanoma) was over 100 µM, the TGI (MALME-3M melanoma) was over 100 µM and the TGI (NCI-H23 lung) was over 100 µM. For the same compound, the TGI (HL-60(TB) leukemia) was over 100 µM, the TGI (NCI-H226 lung) was over 100 µM and the TGI (A549 NSCLC) was over 100 µM. For the same compound, the TGI (K-562 leukemia) was over 100 µM, the TGI (SR leukemia) was over 100 µM and the TGI (EKVX NSCLC) was over 100 µM. The TGI (SNB-75 CNS) was over 100 µM, the TGI (SF-295 CNS) was over 100 µM and the TGI (HOP-62 NSCLC) was over 100 µM. For the same compound, the TGI (786-0 renal) was over 100 µM, the TGI (CCRF-CEM leukemia) was over 100 µM and the TGI (SF-268 CNS) was over 100 µM.
With `CCCCCCCCO/N=C\c1c2c(O)c3c(O)c(C)c4c(c3c1O)C(=O)C(C)(O/C=C\C(OC)C(C)C(OC(C)=O)C(C)C(O)C(C)C(O)C(C)/C=C\C=C(\C)C(=O)N2)O4` (stereo unspecified) the GI50 (OVCAR-3 ovarian) was 0.96 µM, the TGI (OVCAR-3 ovarian) was 2.18 µM and the GI50 (SK-MEL-28 melanoma) was 1.37 µM. For the same compound, the TGI (SK-MEL-28 melanoma) was 4.17 µM, the GI50 (HCT-116 colon) was 1.06 µM and the TGI (HCT-116 colon) was 2.19 µM. It also gave a GI50 (HCC-2998 colon) of 2.05 µM, a TGI (HCC-2998 colon) of 7.03 µM and a GI50 (SN12C renal) of 2.39 µM. For the same compound, the TGI (SN12C renal) was 9.22 µM, the GI50 (PC-3 prostate) was 1.82 µM and the TGI (PC-3 prostate) was 7.02 µM. For the same compound, the GI50 (HCT-15 colon) was 1.79 µM, the TGI (HCT-15 colon) was 6.81 µM and the GI50 (OVCAR-5 ovarian) was 2.12 µM. It also gave a TGI (OVCAR-5 ovarian) of 8.08 µM, a GI50 (SNB-19 CNS) of 2.42 µM and a TGI (SNB-19 CNS) of 8.93 µM. For the same compound, the GI50 (LOX IMVI melanoma) was 1.53 µM, the TGI (LOX IMVI melanoma) was 5.6 µM and the GI50 (U251 CNS) was 1.14 µM. For the same compound, the TGI (U251 CNS) was 3.03 µM, the GI50 (SK-OV-3 ovarian) was 1.86 µM and the TGI (SK-OV-3 ovarian) was 6.68 µM. For the same compound, the GI50 (SW-620 colon) was 1.77 µM, the TGI (SW-620 colon) was 6.09 µM and the GI50 (MCF7 breast) was 1.36 µM. For the same compound, the TGI (MCF7 breast) was 5.12 µM, the GI50 (OVCAR-8 ovarian) was 1.75 µM and the TGI (OVCAR-8 ovarian) was 6.97 µM. It also gave a GI50 (M14 melanoma) of 1.57 µM, a TGI (M14 melanoma) of 5.4 µM and a GI50 (KM12 colon) of 1.67 µM. It also gave a TGI (KM12 colon) of 6.36 µM, a GI50 (CAKI-1 renal) of 1.33 µM and a TGI (CAKI-1 renal) of 5.04 µM. The GI50 (UACC-257 melanoma) was 1.34 µM, the TGI (UACC-257 melanoma) was 4.69 µM and the GI50 (SK-MEL-5 melanoma) was 0.948 µM. The TGI (SK-MEL-5 melanoma) was 2.09 µM, the GI50 (ACHN renal) was 1.78 µM and the TGI (ACHN renal) was 6.58 µM. The GI50 (RPMI-8226 leukemia) was 2.21 µM, the TGI (RPMI-8226 leukemia) was 8.43 µM and the GI50 (A498 renal) was 1.81 µM. For the same compound, the TGI (A498 renal) was 7.12 µM, the GI50 (RXF 393 renal) was 1.14 µM and the TGI (RXF 393 renal) was 3.18 µM. The GI50 (DU-145 prostate) was 1.8 µM, the TGI (DU-145 prostate) was 6.93 µM and the GI50 (SF-539 CNS) was 2.74 µM. The TGI (SF-539 CNS) was 9.75 µM, the GI50 (HS 578T breast) was 1.07 µM and the TGI (HS 578T breast) was 3.1 µM. For the same compound, the GI50 (NCI-H460 lung) was 0.998 µM, the TGI (NCI-H460 lung) was 2.14 µM and the GI50 (NCI-H23 lung) was 1.74 µM. It also gave a TGI (NCI-H23 lung) of 6.55 µM, a GI50 (NCI-H226 lung) of 2.05 µM and a TGI (NCI-H226 lung) of 9.71 µM. The GI50 (MDA-MB-231 breast) was 1.63 µM, the TGI (MDA-MB-231 breast) was 5.91 µM and the GI50 (A549 NSCLC) was 1.73 µM. For the same compound, the TGI (A549 NSCLC) was 6.42 µM, the GI50 (UACC-62 melanoma) was 1.02 µM and the TGI (UACC-62 melanoma) was 2.92 µM. For the same compound, the GI50 (EKVX NSCLC) was 1.43 µM, the TGI (EKVX NSCLC) was 6.59 µM and the GI50 (MDA-MB-435) was 1.43 µM. The TGI (MDA-MB-435) was 5.9 µM, the GI50 (SNB-75 CNS) was 1.66 µM and the TGI (SNB-75 CNS) was 6.97 µM. The GI50 (SF-295 CNS) was 0.953 µM, the TGI (SF-295 CNS) was 2.56 µM and the GI50 (T-47D breast) was 2.06 µM. It also gave a TGI (T-47D breast) of 7.45 µM, a GI50 (OVCAR-4 ovarian) of 1.61 µM and a TGI (OVCAR-4 ovarian) of 5.58 µM. The GI50 (NCI/ADR-RES ovarian) was 1.93 µM, the TGI (NCI/ADR-RES ovarian) was 6.99 µM and the GI50 (HOP-62 NSCLC) was 1.63 µM. The TGI (HOP-62 NSCLC) was 5.78 µM, the GI50 (786-0 renal) was 1.13 µM and the TGI (786-0 renal) was 2.77 µM. For the same compound, the GI50 (HOP-92 NSCLC) was 1.38 µM, the TGI (HOP-92 NSCLC) was 5.32 µM and the GI50 (CCRF-CEM leukemia) was 1.95 µM. It also gave a TGI (CCRF-CEM leukemia) of 9.82 µM, a GI50 (SF-268 CNS) of 2.02 µM and a TGI (SF-268 CNS) of 8.18 µM. The GI50 (COLO 205 colon) was 1.35 µM and the TGI (COLO 205 colon) was 3.59 µM.
